In patent US20240216316A1, “DIHOMO-GAMMA LINOLENIC ACID (DGLA) IS A NOVEL SENOLYTIC” (Buck Institute for Research on Aging, priority 2020, published 2024):
Entries after “also recorded” stand apart in the source; their conditions may differ.

Legend:
IMR-90 fibroblasts = test: DGLA toxicity to senescent vs mock-irradiated IMR-90 fibroblasts, light microscopy; assay type: cell-based; conditions: IMR-90 mock-irradiated or 10Gy IR, 10 days later 50 micromolar DGLA for 2 days
Experimental: IMR-90 fibroblasts were either mock-irradiated (Mock) or irradiated with 10Gy of ionization radiation (IR) to induce senescence. 10 days later, cells were cultured in the presence of either vehicle (media plus FBS carrier) or 50 micromolar DGLA for 2 days. Cells were then photographed using light microscopy.
To evaluate the effect of DGLA on senescent cells, IMR-90 fibroblasts were either mock-irradiated (Mock) or irradiated with 10Gy of ionization radiation (IR) to induce senescence. Ten days later cells were cultured in the presence of either vehicle (media plus FBS carrier) or 50 micromolar DGLA for 2 days. Cells were then photographed using light microscopy.

p16-positive cells [1] = test: Senescence-associated beta-galactosidase staining of epididymal fat and liver of aged P16-3MR mice; assay type: in vivo; conditions: P16-3MR mice aged 22 months; gavage 400 mg/kg for 5 consecutive days; tissues five days after final gavage
Experimental: P16-3MR mice were aged for 22 months, and gavaged with 400 mg/kg of DGLA ethyl ester or vehicle (phosal 50) for 5 consecutive days. Five days after the final gavage, epididymal fat and liver tissues were isolated and stained for senescence-associated beta-galactosidase.

[2] = test system: senescent cells [SEN(IR)]; test: COX-2 dependence of DGLA killing of senescent cells (NS-398 or DMSO), light microscopy and cell counts; assay type: cell-based; conditions: SEN(IR) vs non-senescent; NS-398 (COX-2 inhibitor) or DMSO for 10 days, then 25 micromolar DGLA for 2 days
Experimental: Cells were either irradiated [SEN(IR)] or mock irradiated (non-senescent or “NonS”) and cultured continuously for 10 days in the presence of either NS-398 (a COX-2 inhibitor) or DMSO (vehicle). Cells were then treated with either carrier (BSA) or DGLA (25 micromolar) for 2 days, and images were captured by light microscopy.
(§1) Cells were treated as in FIG. 5. NS≡Non-senescent proliferating, SEN(IR)=IR-induced senescence, treated with 25 micromolar DGLA and either DMSO or NS-398. Panel A) Percent survival was calculated by cell counts relative to cells treated without DGLA. Panel B) Cells were stained for cleaved caspase 3 by immunofluorescence and expressed as stained cells relative to DAPI positive nuclei.
Since DGLA is converted to non-toxic arachidonic acid by D5D in most normal cells (Nakamura & Nara (2004) Annu. Rev. Nutr. 24: 345-376), the combination of gain of COX-2 and loss of D5D in senescent cells makes this an exploitable weakness. […] Its derivatives, the 1-series prostaglandins (PGX1's) are largely anti-inflammatory, and therefore may also have positive effects in the context of sterile inflammation associated with aging, so-called “inflammaging” (Franceschi & Campisi (2014) J. Gerontol. A Biol. Sci. Med. Sci. 69 (Suppl 1): S4-9).

[3] = test system: senescent cells [SEN(IR)]; test: Cleaved caspase 3 immunofluorescence (apoptosis) after DGLA with NS-398 or DMSO; assay type: cell-based; conditions: 25 micromolar DGLA with DMSO or NS-398; stained cells relative to DAPI positive nuclei
Experimental: as §1

[4] = biological target: delta-5-desaturase (D5D, gene name: FADS1) (Homo sapiens, UniProt O60427); conditions: as described in Obukowicz et al. (1998) / Miyahisa et al. (2016); cited from earlier work
delta-5-desaturase (D5D, gene name: FADS1), sequence (O60427 whole entry, species assumed): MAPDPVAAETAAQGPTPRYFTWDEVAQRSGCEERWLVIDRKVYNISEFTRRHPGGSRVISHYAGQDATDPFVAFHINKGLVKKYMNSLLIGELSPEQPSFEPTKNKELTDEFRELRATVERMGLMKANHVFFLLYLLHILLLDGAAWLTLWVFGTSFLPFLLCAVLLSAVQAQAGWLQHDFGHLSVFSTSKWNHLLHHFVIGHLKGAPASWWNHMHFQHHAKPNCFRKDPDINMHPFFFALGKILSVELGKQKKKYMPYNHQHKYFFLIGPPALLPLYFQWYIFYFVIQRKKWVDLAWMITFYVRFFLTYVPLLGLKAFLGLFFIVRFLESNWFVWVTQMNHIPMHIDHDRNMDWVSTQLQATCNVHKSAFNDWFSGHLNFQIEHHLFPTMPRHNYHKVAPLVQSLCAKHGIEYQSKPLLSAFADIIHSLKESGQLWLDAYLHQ

IMR-90 [5] = test: Cell counts and light microscopy of senescent vs nonsenescent IMR-90 treated with T3364366 in 10% or 0.2% FBS; assay type: cell-based; conditions: 72 hours; for FBS dependence of cell killing: 10% FBS vs 0.2% FBS, normalized to 0 dose groups
Experimental: IMR-90 were induced to senesce via 10 Gy of ionizing radiation [SEN(IR)] and cultured for 7 days, followed by treatment with the indicated doses of T3364366 in the presence of 10% FBS (to provide PUFAs). Nonsenescent (NonSEN) cells served as a control. After 72 hours, cell numbers were counted and normalized to DMSO treatments.
Cells from FIG. 10 were visualized by light microscopy, allowing visualization of the cytotoxic properties of T334366 at various doses. (see, e.g., FIG. 11).
IMR-90 were induced to senesce via 10 Gy of ionizing radiation [SEN(IR)] and cultured for 7 days, followed by treatment with the indicated doses of T3364366 in the presence of 10% FBS (which provides PUFAs and growth factors) (FIG. 12, panels A and B—red line, squares) or 0.2% FBS (FIG. 12, panel B—purple line, circles) (which induces quiescence, but limits the ability of cells to synthesize DGLA). Nonsenescent (NonSEN) cells served as a control. After 72 hours, cell numbers were counted and normalized to the 0 dose treatment groups.

p16-positive cells [6] = test: p16 promoter luminescence in aged P16-3MR mice before and after DGLA ethyl ester gavage; assay type: in vivo; conditions: P16-3MR mice aged 22 months; gavage 400 mg/kg for 5 consecutive days; measured two days after final gavage
Experimental: P16-3MR mice were aged for 22 months and luminescence (p16 promoter activity) was measured by luminometry (panel A). Mice were then gavaged with 400 mg/kg of DGLA ethyl ester or vehicle (phosal 50) for 5 consecutive days. Two days after the final gavage, luminescence was again measured (panel B). Six total mice were measured for luminescence and plotted before and after DGLA treatment (panel C).

IMR-90 [7] = test: Cell counts of senescent vs nonsenescent IMR-90 treated with CP 24,879 plus sub-toxic DGLA; assay type: cell-based; conditions: 11.75 μM CP 24,879 in the presence of 10 μM DGLA; 72 hours; SEN(IR) vs NonSEN
Experimental: IMR-90 were induced to senesce via 10 Gy of ionizing radiation [SEN(IR)] and cultured for 7 days, followed by treatment with 11.75 μM CP 24,879 or vehicle (DMSO) in the presence of a sub-toxic concentration of DGLA (10 μM). Nonsenescent (NonSEN) cells served as a control. After 72 hours, cell numbers were counted and normalized to DMSO treatments.

[8] = biological target: T1, delta-6-desaturase (FADS2/D6D) (Homo sapiens, UniProt O95864); conditions: as described in Obukowicz et al. (1998); cited from earlier work
T1 sequence (O95864 1-444): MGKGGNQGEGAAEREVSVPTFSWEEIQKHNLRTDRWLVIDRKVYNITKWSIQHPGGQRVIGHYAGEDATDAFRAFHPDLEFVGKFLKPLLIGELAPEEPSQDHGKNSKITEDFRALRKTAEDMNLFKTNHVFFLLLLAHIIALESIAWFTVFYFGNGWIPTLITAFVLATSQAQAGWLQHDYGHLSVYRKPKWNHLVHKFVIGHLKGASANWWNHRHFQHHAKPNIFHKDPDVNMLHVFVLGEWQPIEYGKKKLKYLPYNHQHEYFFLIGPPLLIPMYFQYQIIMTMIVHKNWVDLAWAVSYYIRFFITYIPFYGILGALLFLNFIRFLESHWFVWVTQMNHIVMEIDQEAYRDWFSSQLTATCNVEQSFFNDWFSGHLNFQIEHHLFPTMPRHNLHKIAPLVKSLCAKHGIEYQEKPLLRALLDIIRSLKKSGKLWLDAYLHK

Q: What does the source list for `CCCCC/C=C\C/C=C\C/C=C\CCCCCCC(=O)O` [DGLA, dihomo-gamma-linolenic acid]?
A: toxicity to senescent cells (IMR-90 fibroblasts): selectively toxic to senescent cells; senescence-associated beta-galactosidase in epididymal fat and liver tissues (p16-positive cells [1]): less senescence-associated beta-glactodsidase was observed; killing of senescent cells, COX-2 dependence [2]: selectively toxic to senescent cells in a COX-2 dependent manner; also recorded: kills senescent cells in a COX-2-dependent manner; apoptosis in senescent cells (cleaved caspase 3), COX-2 dependence [3]: induces apoptosis in senescent cells in a COX-2-dependent manner

Q: With `CC(=O)NCCSc1nc2cscc2c(=O)n1-c1ccc(OCC(F)(F)F)cc1` [Compound T3364366, N-[2-[[3,4-Dihydro-4-oxo-3-[4-(2,2,2-trifluoroethoxy)phenyl]thieno[3,4-d]pyrimidin-2-yl]thio]ethyl]acetamide] as the compound, how does the “inhibition of delta-5-desaturase” value [4] read?
A: specific inhibitor of delta-5-desaturase

Q: And the “FBS dependence of cell killing” value (IMR-90 [5])?
A: only kills senescent cells in the presence of FBS

Q: And the “FBS dependence of cell killing” value (IMR-90 [5]; listed as T334366)?
A: FBS-dependent killing of senescent cells

Q: And the “killing of senescent cells (cell numbers normalized to DMSO)” value (IMR-90 [5]; indicated doses, 10% FBS, SEN(IR) vs NonSEN)?
A: selectively kills senescent cells

Q: Which “senescence-associated beta-galactosidase in epididymal fat and liver tissues” value (p16-positive cells [1]) does the source give for `CCCCC/C=C\C/C=C\C/C=C\CCCCCCC(=O)OCC` [DGLA ethyl ester] here?
A: lowers the burden of p16-positive cells

Q: What about the “burden of p16-positive cells (luminescence, p16 promoter activity)” value (p16-positive cells [6]) of the same compound?
A: lowers the burden of p16-positive cells

Q: Which results are given for `CC(C)CCOc1ccc(N)cc1.Cl` [CP 24,879, 4-(3-methylbutoxy)-benzenamine, monohydrochloride]?
A: killing of senescent cells (cell numbers normalized to DMSO) (IMR-90 [7]): selectively kills senescent cells; inhibition of delta-5-desaturase [4]: inhibitor of both delta-5- and delta-6-desaturase; inhibition of delta-6-desaturase [8]: inhibitor of both delta-5- and delta-6-desaturase
